# Reference: patent US6750235B1, “Pramipexole as a treatment for cocaine craving” (The General Hospital Corporation, priority 1999, dated 2004)
# Assay: Case report: treatment of cocaine craving using pramipexole (patient)
# Format: in vivo, human
# Conditions: one patient; lamotrigine up to 200 mg, before pramipexole was added
structure (smiles),measurement,value
Nc1nnc(-c2cccc(Cl)c2Cl)c(N)n1 [lamotrigine],mood (depression),modest improvement
